In US20130259884A1, “PEPTIDES” ([…] SL, priority 2010, published 2013):
Where a SMILES comes first, the peptide text is derived from it.

Experiment: Water solubility of peptides when preparing stock solutions
Assay type: physicochemical
Settings: stock solution in sterile distilled water or 100% DMSO; read-out: solubility of peptide (water soluble or water insoluble, dissolved in DMSO)
Experimental: For challenge, peptides were administered as follows: • Individual peptides (soluble). Individual water soluble peptides were dissolved as 10, 5 or 2.5 mg/ml stock solutions in sterile distilled water. Before use, each peptide was diluted in water to 2 mg/ml and 10 μl of this 2 mg/ml mix was added to 990 μl of media. Then 100 μl of this peptide/media mix was added to 100 μl of media containing 350,000 PBMC in an ELISPOT anti-IL-4 coated cell culture plate well for a final peptide concentration of 10 μg/ml. Identically diluted media only was added to the cells and used for the no peptide media control wells (media only). • Individual peptides (DMSO). Individual water insoluble peptides were dissolved in 100% DMSO to a stock concentration of 50 mg/ml. Before use each peptide was diluted in water to 2 mg/ml and then 10 μl of the 2 mg/ml mix was added to 990 μl of cell-culture media. Then 100 μl of this peptide/media mix was added to 100 μl of media containing 350,000 PBMC in an ELISPOT anti-IL-4 coated cell culture plate well for a final peptide concentration of 10 μg/ml. Identically diluted media only was added to the cells and used for the no peptide media control wells (media only). • A combination preparation containing Alt a 1 soluble peptides (33.2, 34.3, 35.4, 35.5, 37.3.1, 37.4.1, L6-5.01, L10-1.01, L10-2.01, L10-3), called Alt a 1 Sol. Each peptide was diluted from water stock to 2 mg/ml in sterile distilled water. Then 10 μl of each peptide required for the combined preparation was mixed and brought up to 1 ml in media. Then 100 μl of this peptide/media mix was added to 100 μl of media containing 350,000 PBMC in an ELISPOT anti-IL-4 coated cell culture plate well for a final concentration of each peptide of 10 μg/ml. Identically diluted media only was used for the no peptide control wells (media only). • A combination preparation containing Alt a 1 DMSO peptides (32.2.1, 38.2.1, 35.2, 35.3, L6-2, L6-3, L6-4, 38.3, 37.2), called Alt a 1 DMSO. Each peptide was diluted from DMSO stock to 2 mg/ml in sterile distilled water. Then 10 μl of each peptide required for the combined preparation was mixed and brought up to 1 ml in media. Then 100 μl of this peptide/media mix is added to 100 μl of media containing 350,000 PBMC in an ELISPOT anti-IL-4 coated cell culture plate well for a final concentration of each peptide of 10 μg/ml. Identically diluted media only was used for the no peptide control wells (media only). • A combination preparation containing non-Alt a 1 soluble peptides (40.2, 41.2, 43.2, 44.2, 46.2, 47.2.1, 56.2, 57.2.1, 60.2, 62.2.1, 67.2, 71.3), called Alt a Other Sol. Each peptide was diluted from water stock to 2 mg/ml in sterile distilled water. Then 10 μl of each peptide required for the combined preparation was mixed and brought up to 1 ml in media, Then 100 μl of this peptide/media mix was added to 100 μl of media containing 350,000 PBMC in an ELISPOT anti-IL-4 coated cell culture plate well for a final concentration of each peptide at 10 μg/ml. Identically diluted media only was used for the no peptide control wells (media only). • A combination preparation containing non-Alt a 1 DMSO peptides (39.2, 42.2, 45.2, 48.2.1, 50.2, 51.2.1, 61.2.1, 66.3.1, 68.2.1, 70.2, 71.2, 72.2), called Alt a Other DMSO. Each peptide was diluted from DMSO stock to 2 mg/ml in sterile distilled water. Then 10 ul of each peptide required for the combined preparation was mixed and brought up to 1 ml in media, Then 100 μl of this peptide/media mix was added to 100 μl of media containing 350,000 PBMC in an ELISPOT anti-IL-4 coated cell culture plate well for a final concentration of each peptide at 10 μg/ml. Identically diluted media only was used for the no peptide control wells (media only).

Compound | solubility [µg/mL]
CC[C@H](C)[C@H](NC(=O)[C@H](Cc1ccccc1)NC(=O)[C@H](Cc1ccc(O)cc1)NC(=O)CNC(=O)[C@H](CCCCN)NC(=O)[C@@H](N)CC(=O)O)C(=O)N[C@@H](CCC(=O)O)C(=O)N1CCC[C@H]1C(=O)N[C@H](C(=O)N[C@H](C(=O)N[C@@H](Cc1ccccc1)C(=O)N[C@@H](CO)C(=O)N[C@@H](CC(N)=O)C(=O)N[C@H](C(=O)N[C@H](C(=O)O)[C@@H](C)O)C(C)C)[C@@H](C)CC)[C@@H](C)O [Peptide 70.2, DKGYFIEPTIFSNVT] (H-DKGYFIEPTIFSNVT-OH; N-terminus and C-terminus assumed) | < 2500
CC[C@H](C)[C@H](NC(=O)[C@@H](NC(=O)[C@@H](NC(=O)[C@H](CCCCN)NC(=O)CNC(=O)[C@@H](N)CCCCN)C(C)C)C(C)C)C(=O)N[C@H](C(=O)N[C@H](C(=O)NCC(=O)N[C@@H](C)C(=O)N[C@@H](CO)C(=O)NCC(=O)N1CCC[C@H]1C(=O)N[C@H](C(=O)NCC(=O)O)[C@@H](C)O)[C@@H](C)O)C(C)C [Peptide 46.2, KGKVVIVTGASGPTG] (H-KGKVVIVTGASGPTG-OH) | > 2500
CC(C)C[C@H](NC(=O)[C@H](C)NC(=O)[C@H](CCCCN)NC(=O)[C@H](CC(C)C)NC(=O)[C@H](CCCCN)NC(=O)[C@H](CCC(N)=O)NC(=O)[C@H](Cc1ccc(O)cc1)NC(=O)[C@@H](NC(=O)[C@H](CCC(=O)O)NC(=O)[C@H](C)N)C(C)C)C(=O)N[C@@H](C)C(=O)N[C@@H](CCCCN)C(=O)N[C@@H](CCCCN)C(=O)N[C@H](C(=O)N[C@@H](Cc1ccc(O)cc1)C(=O)O)[C@@H](C)O [Peptide 60.2, AEVYQKLKALAKKTY] (H-AEVYQKLKALAKKTY-OH) | > 2500
CC(C)C[C@H](NC(=O)[C@H](CCCNC(=N)N)NC(=O)[C@H](CC(N)=O)NC(=O)[C@@H](N)CC(=O)O)C(=O)N[C@H](C(=O)N[C@@H](CC(N)=O)C(=O)N[C@@H](Cc1c[nH]cn1)C(=O)N[C@@H](Cc1ccccc1)C(=O)N[C@H](C(=O)N[C@@H](CC(N)=O)C(=O)N[C@@H](CCC(=O)O)C(=O)N[C@@H](Cc1ccccc1)C(=O)N[C@@H](CCCCN)C(=O)N[C@@H](CCCNC(=N)N)C(=O)N[C@@H](CCCCN)C(=O)O)[C@@H](C)O)C(C)C [Peptide 40.2, DNRLVNHFTNEFKRK] (H-DNRLVNHFTNEFKRK-OH; N-terminus and C-terminus assumed) | > 2500
CC[C@H](C)[C@H](NC(=O)[C@H](CC(N)=O)NC(=O)[C@H](Cc1ccccc1)NC(=O)CNC(=O)[C@H](CC(C)C)NC(=O)[C@H](CO)NC(=O)[C@H](CC(N)=O)NC(=O)[C@H](Cc1ccc(O)cc1)NC(=O)[C@H](Cc1ccc(O)cc1)NC(=O)[C@@H](NC(=O)CN)[C@@H](C)O)C(=O)N[C@@H](CCCCN)C(=O)N[C@@H](C)C(=O)N[C@H](C(=O)N[C@@H](CC(N)=O)C(=O)O)[C@@H](C)O [Peptide L6-4, GTYYNSLGFNIKATN] (H-GTYYNSLGFNIKATN-OH) | < 2500
CC[C@H](C)[C@H](NC(=O)[C@H](CC(=O)O)NC(=O)[C@H](CCC(N)=O)NC(=O)[C@@H]1CCCN1C(=O)[C@@H](NC(=O)[C@H](Cc1ccccc1)NC(=O)[C@H](CC(=O)O)NC(=O)[C@H](CO)NC(=O)[C@@H](N)CC(C)C)C(C)C)C(=O)N[C@@H](CCC(N)=O)C(=O)N[C@@H](CCCCN)C(=O)N[C@@H](CC(C)C)C(=O)N[C@@H](Cc1c[nH]c2ccccc12)C(=O)N[C@@H](Cc1c[nH]cn1)C(=O)N[C@@H](CO)C(=O)O [Peptide 67.2, LSDFVPQDIQKLWHS] (H-LSDFVPQDIQKLWHS-OH) | > 2500
CC(C)C[C@H](NC(=O)[C@H](Cc1ccccc1)NC(=O)[C@H](CO)NC(=O)[C@H](CC(N)=O)NC(=O)[C@H](CCC(=O)O)NC(=O)CNC(=O)[C@@H](NC(=O)[C@H](CO)NC(=O)[C@H](Cc1ccc(O)cc1)NC(=O)[C@H](Cc1c[nH]c2ccccc12)NC(=O)[C@H](CCCCN)NC(=O)[C@H](Cc1c[nH]cn1)NC(=O)[C@@H](N)CC(=O)O)C(C)C)C(=O)N[C@@H](CC(=O)O)C(=O)N[C@@H](Cc1ccccc1)C(=O)O [Peptide L10-2.01, DHKWYSVGENSFLDF] (H-DHKWYSVGENSFLDF-OH) | > 2500
CC[C@H](C)[C@H](NC(=O)[C@H](CC(N)=O)NC(=O)[C@H](Cc1ccccc1)NC(=O)CNC(=O)[C@H](CC(C)C)NC(=O)[C@@H](N)CO)C(=O)N[C@@H](CCCCN)C(=O)N[C@@H](C)C(=O)N[C@H](C(=O)N[C@@H](CC(N)=O)C(=O)NCC(=O)NCC(=O)N[C@H](C(=O)N[C@@H](CC(C)C)C(=O)N[C@@H](CC(=O)O)C(=O)O)[C@@H](C)O)[C@@H](C)O [Peptide 35.4, SLGFNIKATNGGTLD] (H-SLGFNIKATNGGTLD-OH) | > 2500
CC(C)C[C@H](NC(=O)[C@@H](NC(=O)CNC(=O)[C@H](Cc1c[nH]c2ccccc12)NC(=O)CNC(=O)[C@H](C)NC(=O)CN)C(C)C)C(=O)N[C@H](C(=O)N[C@@H](CO)C(=O)N[C@@H](Cc1c[nH]cn1)C(=O)N[C@@H](CCCNC(=N)N)C(=O)N[C@@H](CO)C(=O)NCC(=O)N[C@@H](CCC(=O)O)C(=O)N[C@H](C(=O)O)[C@@H](C)O)C(C)C [Peptide 62.2.1, GAGWGVLVSHRSGET] (H-GAGWGVLVSHRSGET-OH) | > 2500
CC[C@H](C)[C@H](NC(=O)[C@H](C)NC(=O)[C@H](Cc1c[nH]c2ccccc12)NC(=O)[C@@H](N)C(C)C)C(=O)N[C@H](C(=O)N[C@@H](CC(C)C)C(=O)N[C@@H](CC(C)C)C(=O)N[C@@H](CO)C(=O)N[C@@H](CC(C)C)C(=O)N[C@H](C(=O)N[C@@H](CCC(N)=O)C(=O)N[C@@H](CC(C)C)C(=O)N[C@H](C(=O)N[C@H](C(=O)N1CCC[C@H]1C(=O)O)[C@@H](C)O)[C@@H](C)O)C(C)C)C(C)C [Peptide 48.2.1, VWAIVLLSLVQLTTP] (H-VWAIVLLSLVQLTTP-OH) | < 2500
CC[C@H](C)[C@H](NC(=O)[C@H](Cc1ccc(O)cc1)NC(=O)[C@H](C)NC(=O)[C@H](CC(=O)O)NC(=O)[C@H](C)NC(=O)[C@@H](NC(=O)CNC(=O)[C@H](CCC(N)=O)NC(=O)[C@@H](NC(=O)[C@@H](NC(=O)[C@H](Cc1ccccc1)NC(=O)[C@H](CC(=O)O)NC(=O)[C@H](CCCCN)NC(=O)[C@@H]1CCCN1)C(C)C)C(C)C)C(C)C)C(=O)N[C@H](C(=O)O)[C@@H](C)O [Peptide 38.2.1, PKDFVVQGVADAYIT] (H-PKDFVVQGVADAYIT-OH) | < 2500
CC[C@H](C)[C@H](NC(=O)[C@H](CO)NC(=O)[C@@H](NC(=O)[C@@H](NC(=O)[C@H](CCCCN)NC(=O)[C@@H](NC(=O)[C@@H](N)CCC(N)=O)[C@@H](C)O)[C@@H](C)O)C(C)C)C(=O)N[C@@H](CCCNC(=N)N)C(=O)N[C@@H](CC(C)C)C(=O)NCC(=O)N[C@@H](CC(=O)O)C(=O)N[C@H](C(=O)N[C@@H](CC(C)C)C(=O)N[C@@H](Cc1ccccc1)C(=O)NCC(=O)O)C(C)C [Peptide 71.3, QTKTVSIRLGDVLFG] (H-QTKTVSIRLGDVLFG-OH) | > 2500
CC[C@H](C)[C@H](NC(=O)[C@H](CC(N)=O)NC(=O)[C@H](Cc1ccccc1)NC(=O)CN)C(=O)N[C@@H](CCCCN)C(=O)N[C@@H](C)C(=O)N[C@H](C(=O)N[C@@H](CC(N)=O)C(=O)NCC(=O)NCC(=O)N[C@H](C(=O)N[C@@H](CC(C)C)C(=O)N[C@@H](CC(=O)O)C(=O)N[C@@H](Cc1ccccc1)C(=O)N[C@H](C(=O)O)[C@@H](C)O)[C@@H](C)O)[C@@H](C)O [Peptide 35.5, GFNIKATNGGTLDFT] (H-GFNIKATNGGTLDFT-OH) | > 2500
